Measured values from ChEMBL document CHEMBL5226390, “Synthesis and Structure-Activity Analysis of Icaritin Derivatives as Potential Tumor Growth Inhibitors of Hepatocellular Carcinoma Cells” (J Nat Prod, 2023).

Experiments:
Assay type in all cases: functional, cell-based; call rule not given here
HepG2 = assay: Antiproliferative activity against human HepG2 cells assessed as reduction in cell viability incubated for 48 hrs by MTT assay; conditions: HepG2, 48 h
SMMC-7721 = assay: Antiproliferative activity against human SMMC-7721 cells assessed as reduction in cell viability incubated for 48 hrs by MTT assay
Hep 3B2 = assay: Antiproliferative activity against human Hep3B cells assessed as reduction in cell viability incubated for 48 hrs by MTT assay
[1] = Homo sapiens, SMMC-7721, 48 h, read-out: IC50

SMILES	IC50 (HepG2)	IC50 (SMMC-7721; smmc-7721)	IC50 (SMMC-7721; [1])	IC50 (Hep 3B2)
CCCCN(CCCC)CCOc1cc(O)c2c(=O)c(O[C@H]3O[C@H](C)[C@@H](O)[C@H](O)[C@@H]3O)c(-c3ccc(OC)cc3)oc2c1CC=C(C)C	> 10 µM	Not Active	–	> 10 µM
COc1ccc(-c2oc3c(CC=C(C)C)c(OCCCCN4CCCC4)cc(O)c3c(=O)c2O[C@H]2O[C@H](C)[C@@H](O)[C@H](O)[C@@H]2O)cc1	3 µM	–	> 10 µM	4 µM
COc1ccc(-c2oc3c(CC=C(C)C)c(OCCN4CCOCC4)cc(O)c3c(=O)c2O[C@H]2O[C@H](C)[C@@H](O)[C@H](O)[C@@H]2O)cc1	> 10 µM	Not Active	–	6.1 µM
COc1ccc(-c2oc3c(CC=C(C)C)c(OCCCN4CCCC4)cc(O)c3c(=O)c2O[C@H]2O[C@H](C)[C@@H](O)[C@H](O)[C@@H]2O)cc1	6.3 µM	–	6.1 µM	7.6 µM
CCN(CC)CCCOc1cc(O)c2c(=O)c(O[C@H]3O[C@H](C)[C@@H](O)[C@H](O)[C@@H]3O)c(-c3ccc(OC)cc3)oc2c1CC=C(C)C	5.5 µM	–	> 10 µM	> 10 µM
COc1ccc(-c2oc3c(CC=C(C)C)c(OCCN4CCC(N5CCCCC5)CC4)cc(O)c3c(=O)c2O[C@H]2O[C@H](C)[C@@H](O)[C@H](O)[C@@H]2O)cc1	> 10 µM	Not Active	–	> 10 µM
COc1ccc(-c2oc3c(CC=C(C)C)c(OCCN4CCC(C)CC4)cc(O)c3c(=O)c2O[C@H]2O[C@H](C)[C@@H](O)[C@H](O)[C@@H]2O)cc1	> 10 µM	Not Active	–	> 10 µM
COc1ccc(-c2oc3c(CC=C(C)C)c(OC[C@H](O)CN4CCCC4)cc(O)c3c(=O)c2O[C@H]2O[C@H](C)[C@@H](O)[C@H](O)[C@@H]2O)cc1	> 10 µM	–	> 10 µM	> 10 µM
COc1ccc(-c2oc3c(CC=C(C)C)c(OCCCCN4CCC(O)CC4)cc(O)c3c(=O)c2O[C@H]2O[C@H](C)[C@@H](O)[C@H](O)[C@@H]2O)cc1	6.5 µM	–	7.1 µM	5.7 µM
COc1ccc(-c2oc3c(CC=C(C)C)c(OC[C@H](O)CN(C)C)cc(O)c3c(=O)c2O[C@H]2O[C@H](C)[C@@H](O)[C@H](O)[C@@H]2O)cc1	> 10 µM	–	> 10 µM	> 10 µM
COc1ccc(-c2oc3c(CC=C(C)C)c(OCCOCCN4CCOCC4)cc(O)c3c(=O)c2O[C@H]2O[C@H](C)[C@@H](O)[C@H](O)[C@@H]2O)cc1	> 10 µM	Not Active	–	> 10 µM
COc1ccc(-c2oc3c(CC=C(C)C)c(OCCOCCOCCOCCN4CCCC4)cc(O)c3c(=O)c2O[C@H]2O[C@H](C)[C@@H](O)[C@H](O)[C@@H]2O)cc1	> 10 µM	–	> 10 µM	9.8 µM
COc1ccc(-c2oc3c(CC=C(C)C)c(OCCCN4CCOCC4)cc(O)c3c(=O)c2O[C@H]2O[C@H](C)[C@@H](O)[C@H](O)[C@@H]2O)cc1	7.4 µM	–	> 10 µM	8 µM
CCN(CC)CCCCCCOc1cc(O)c2c(=O)c(O[C@H]3O[C@H](C)[C@@H](O)[C@H](O)[C@@H]3O)c(-c3ccc(OC)cc3)oc2c1CC=C(C)C	2.5 µM	–	6.5 µM	8.9 µM
COc1ccc(-c2oc3c(CC=C(C)C)c(OCCOCCOCCN4CCCC4)cc(O)c3c(=O)c2O[C@H]2O[C@H](C)[C@@H](O)[C@H](O)[C@@H]2O)cc1	> 10 µM	–	> 10 µM	> 10 µM
COc1ccc(-c2oc3c(CC=C(C)C)c(OCCCC(=O)NO)cc(O)c3c(=O)c2O[C@H]2O[C@H](C)[C@@H](O)[C@H](O)[C@@H]2O)cc1	> 10 µM	–	> 10 µM	> 10 µM
CCCCN(CCCC)CCCCOc1cc(O)c2c(=O)c(O[C@H]3O[C@H](C)[C@@H](O)[C@H](O)[C@@H]3O)c(-c3ccc(OC)cc3)oc2c1CC=C(C)C	9.8 µM	Not Active	–	> 10 µM
CCN(CC)CCOc1cc(O)c2c(=O)c(O[C@H]3O[C@H](C)[C@@H](O)[C@H](O)[C@@H]3O)c(-c3ccc(OC)cc3)oc2c1CC=C(C)C	> 10 µM	Not Active	–	> 10 µM
COc1ccc(-c2oc3c(CC=C(C)C)c(OCCOCCN4CCCC4)cc(O)c3c(=O)c2O[C@H]2O[C@H](C)[C@@H](O)[C@H](O)[C@@H]2O)cc1	8.6 µM	–	8.6 µM	6.4 µM
COc1ccc(-c2oc3c(CC=C(C)C)c(OCCCCN4CCC(C)CC4)cc(O)c3c(=O)c2O[C@H]2O[C@H](C)[C@@H](O)[C@H](O)[C@@H]2O)cc1	> 10 µM	Not Active	–	> 10 µM
COc1ccc(-c2oc3c(CC=C(C)C)c(OCCOCCN4CCNCC4)cc(O)c3c(=O)c2O[C@H]2O[C@H](C)[C@@H](O)[C@H](O)[C@@H]2O)cc1	> 10 µM	Not Active	–	> 10 µM
COc1ccc(-c2oc3c(CC=C(C)C)c(OCCCN(C)C)cc(O)c3c(=O)c2O[C@H]2O[C@H](C)[C@@H](O)[C@H](O)[C@@H]2O)cc1	> 10 µM	Not Active	–	> 10 µM

Continued, in another order:

IC50 (HepG2)	IC50 (SMMC-7721; smmc-7721)	IC50 (SMMC-7721; [1])	SMILES	IC50 (Hep 3B2)
> 10 µM	Not Active	–	CCCCN(CCCC)CCCOc1cc(O)c2c(=O)c(O[C@H]3O[C@H](C)[C@@H](O)[C@H](O)[C@@H]3O)c(-c3ccc(OC)cc3)oc2c1CC=C(C)C	9.3 µM
> 10 µM	Not Active	–	COc1ccc(-c2oc3c(CC=C(C)C)c(OCCCN4CCNCC4)cc(O)c3c(=O)c2O[C@H]2O[C@H](C)[C@@H](O)[C@H](O)[C@@H]2O)cc1	3.8 µM
4.7 µM	–	> 10 µM	COc1ccc(-c2oc3c(CC=C(C)C)c(OCCCCN)cc(O)c3c(=O)c2O[C@H]2O[C@H](C)[C@@H](O)[C@H](O)[C@@H]2O)cc1	4.9 µM
> 10 µM	Not Active	–	COc1ccc(-c2oc3c(CC=C(C)C)c(OCCCN)cc(O)c3c(=O)c2O[C@H]2O[C@H](C)[C@@H](O)[C@H](O)[C@@H]2O)cc1	> 10 µM
> 10 µM	Not Active	–	COc1ccc(-c2oc3c(CC=C(C)C)c(OCCN)cc(O)c3c(=O)c2O[C@H]2O[C@H](C)[C@@H](O)[C@H](O)[C@@H]2O)cc1	> 10 µM
> 10 µM	Not Active	–	COc1ccc(-c2oc3c(CC=C(C)C)c(OCCCCN(C)C)cc(O)c3c(=O)c2O[C@H]2O[C@H](C)[C@@H](O)[C@H](O)[C@@H]2O)cc1	8.7 µM
> 10 µM	Not Active	–	COc1ccc(-c2oc3c(CC=C(C)C)c(OCCCN4CCC(C)CC4)cc(O)c3c(=O)c2O[C@H]2O[C@H](C)[C@@H](O)[C@H](O)[C@@H]2O)cc1	> 10 µM
> 10 µM	–	> 10 µM	CCN(CC)CCOCCOCCOc1cc(O)c2c(=O)c(O[C@H]3O[C@H](C)[C@@H](O)[C@H](O)[C@@H]3O)c(-c3ccc(OC)cc3)oc2c1CC=C(C)C	> 10 µM
7.1 µM	–	> 10 µM	CCN(CC)CCOCCOCCOCCOc1cc(O)c2c(=O)c(O[C@H]3O[C@H](C)[C@@H](O)[C@H](O)[C@@H]3O)c(-c3ccc(OC)cc3)oc2c1CC=C(C)C	7.2 µM
3.8 µM	–	6.4 µM	CCN(CC)CCCCOc1cc(O)c2c(=O)c(O[C@H]3O[C@H](C)[C@@H](O)[C@H](O)[C@@H]3O)c(-c3ccc(OC)cc3)oc2c1CC=C(C)C	5.4 µM
5.5 µM	–	8.8 µM	CNC(=O)c1cc(Oc2ccc(NC(=O)Nc3ccc(Cl)c(C(F)(F)F)c3)cc2)ccn1 [SORAFENIB]	7.7 µM
9.2 µM	Not Active	–	COc1ccc(-c2oc3c(CC=C(C)C)c(OCCN(C)C)cc(O)c3c(=O)c2O[C@H]2O[C@H](C)[C@@H](O)[C@H](O)[C@@H]2O)cc1	> 10 µM
6.6 µM	–	> 10 µM	COc1ccc(-c2oc3c(CC=C(C)C)c(OCCCN4CCC(N5CCCCC5)CC4)cc(O)c3c(=O)c2O[C@H]2O[C@H](C)[C@@H](O)[C@H](O)[C@@H]2O)cc1	5.6 µM
7.4 µM	Not Active	–	COc1ccc(-c2oc3c(CC=C(C)C)c(OCCCCN4CCNCC4)cc(O)c3c(=O)c2O[C@H]2O[C@H](C)[C@@H](O)[C@H](O)[C@@H]2O)cc1	8 µM
> 10 µM	Not Active	–	COc1ccc(-c2oc3c(CC=C(C)C)c(OCCN4CCNCC4)cc(O)c3c(=O)c2O[C@H]2O[C@H](C)[C@@H](O)[C@H](O)[C@@H]2O)cc1	> 10 µM
> 10 µM	–	> 10 µM	COc1ccc(-c2oc3c(CC=C(C)C)c(OCCCCCC(=O)NO)cc(O)c3c(=O)c2O[C@H]2O[C@H](C)[C@@H](O)[C@H](O)[C@@H]2O)cc1	> 10 µM
7.6 µM	–	6.4 µM	COc1ccc(-c2oc3c(CC=C(C)C)c(OCCCCN4CCC(N5CCCCC5)CC4)cc(O)c3c(=O)c2O[C@H]2O[C@H](C)[C@@H](O)[C@H](O)[C@@H]2O)cc1	3.9 µM
> 10 µM	–	> 10 µM	CCN(CC)C[C@@H](O)COc1cc(O)c2c(=O)c(O[C@H]3O[C@H](C)[C@@H](O)[C@H](O)[C@@H]3O)c(-c3ccc(OC)cc3)oc2c1CC=C(C)C	8.3 µM
> 10 µM	Not Active	–	COc1ccc(-c2oc3c(CC=C(C)C)c(OCCN4CCC(O)CC4)cc(O)c3c(=O)c2O[C@H]2O[C@H](C)[C@@H](O)[C@H](O)[C@@H]2O)cc1	> 10 µM
> 10 µM	Not Active	–	COc1ccc(-c2oc3c(CC=C(C)C)c(OCCCCN4CCOCC4)cc(O)c3c(=O)c2O[C@H]2O[C@H](C)[C@@H](O)[C@H](O)[C@@H]2O)cc1	> 10 µM
> 10 µM	Not Active	–	COc1ccc(-c2oc3c(CC=C(C)C)c(OCCCN4CCC(O)CC4)cc(O)c3c(=O)c2O[C@H]2O[C@H](C)[C@@H](O)[C@H](O)[C@@H]2O)cc1	8.6 µM
> 10 µM	–	> 10 µM	COc1ccc(-c2oc3c(CC=C(C)C)c(OCCCCC(=O)NO)cc(O)c3c(=O)c2O[C@H]2O[C@H](C)[C@@H](O)[C@H](O)[C@@H]2O)cc1	> 10 µM
